Test results as given in patent publication US10619195B2, “Gene-expression profiling with reduced numbers of transcript measurements” (Massachusetts Institute of Technology, priority 2010, dated 2020).

Columns and labels:
[1] = test system: histone-deacetylase (HDAC) inhibitor query signature; assay: L1000 analog of Connectivity Map (1,000 landmark transcripts by LMF plus inference) queried with an HDAC-inhibitor query signature; format: cell-based, human; details: L1000 dataset, MCF7 cells; published HDAC-inhibitor query signature (Glaser et al.); n=8, p-value<0.001; highest scoring perturbagen
Excerpt: This example described one method for the generation of transcriptome-wide gene-expression profiles using measurement of the expression levels of a sub-transcriptome number of cluster centroid landmark transcripts. The present method uses the LMF moderate multiplex gene-expression analysis platform described by Peck et al. (“A method for high-throughput gene expression signature analysis” Genome Biology 7:R61 2006), the Luminex FlexMAP 3D optically-addressed microspheres and flow-cytometric detection system, 1,000 cluster centroid landmark transcripts (and corresponding gene-specific sequences) validated for LMF from Example III (above), a corresponding dependency matrix from Example III (above), 50 empirically-determined invariant transcripts with expression levels spanning the range of those observed, and 1,050 barcode sequences developed. The FlexMAP 3D system allows simultaneous quantification of 500 distinct analytes in samples arrayed in the wells of a 384-well plate. […]
MCF7 cells were treated with small molecules and corresponding vehicles in 384-well plates. […] The captured amplicons were labeled with phycoerythrin and the resulting microsphere populations were analyzed using a FlexMAP 3D instrument in accordance with the manufacturer's instructions. […]

[2] = test system: histone-deacetylase (HDAC) inhibitor query signature; assay: Original Connectivity Map (Affymetrix microarrays) queried with an HDAC-inhibitor query signature; format: cell-based, human; details: published HDAC-inhibitor query signature (Glaser et al.), n=12, p-value<0.001, highest score
Excerpt: The term “Connectivity Map” as used herein, refers to a public database of transcriptome-wide gene-expression profiles derived from cultured human cells treated with a plurality of perturbagens, and pattern-matching algorithms for the scoring and identification of significant similarities between those profiles and external gene-expression data, as described by Lamb et al., “The Connectivity Map: using gene-expression signatures to connect small molecules, genes and disease”. Science 313:1929 (2006). Build02 of the Connectivity Map contains 7,056 full-transcriptome gene-expression profiles generated with Affymetrix high-density oligonucleotide microarrays representing the biological effects of 1,309 small-molecule perturbagens, and is available at broadinstitute.org/cmap.
The term “enrichment score” as used herein, refers to a measure of the similarity of the biological effects of a perturbagen used to generate a query signature with those of a perturbagen represented in the Connectivity Map based upon the gene-expression profiles of multiple independent treatments with that perturbagen. […]

[3] = test system: canonical NF-κB signaling pathway (BIOCARTA_NFKB_PATHWAY); assay: Gene-Set Enrichment Analysis of L1000 profiles from macrophages treated with LPS; format: cell-based; details: primary human macrophages, LPS versus vehicle control; L1000 inferred profiles; 512 gene sets tested; p<0.001
Description: The expression levels of 1,000 cluster centroid transcripts were measured in primary human macrophages following treatment with lipopolysaccharide (LPS) or vehicle control, and used to create gene-expression profiles composed of expression levels for 22,268 transcripts, according to the L1000 methods described in Example IV.
LPS is known to be a potent activator of the NF-KB transcription-factor complex (Qin et al., “LPS induces CD40 gene expression through the activation of NF-κB and STAT-1a in macrophages and microglia” Blood 106: 3114-3122 2005).

Compound	enrichment score [1]	enrichment score [2]	GSEA score of the BIOCARTA_NFKB_PATHWAY gene set (23 members) [3]
O=C(CCCCCCC(=O)Nc1ccccc1)NO [vorinostat]	0.921	0.973	
lipopolysaccharide [LPS]			highest score of all gene sets tested
